Results taken from patent publication US20130324526A1, “[1,2,4] TRIAZOLO [4,3-B] PYRIDAZINE COMPOUNDS AS INHIBITORS OF THE C-MET TYROSINE KINASE” (NOVARTIS AG, priority 2011, published 2013).

Key:
GTL16 cells = test: GTL16 cell viability assay (CellTiter Glo); format: cell-based; settings: Homo sapiens, GTL 16, GTL16 gastric cancer cells, 24 hours, triplicates, read-out: GTL-16 Proliferation IC50
Experimental: GTL16 cell line is derived from a gastric cancer patient. GTL16 expresses high level of c-Met receptor tyrosine kinase due to the gene amplification.
GTL16 cells were seeded in DMEM medium with 10% FBS and 1% Pene. & Strep. at 5000 cells/well/90 μL in 96 well plate and incubated overnight for attachment at 37° C. in 5% CO2 incubator. 10-fold serials dilutions of compounds were added to the cell as 10 μL/well. The final assay volume was 100 μl/well. The assay plates were incubated at 37° C. in 5% CO2 incubator for 24 hours. […] Briefly, the plates were cooled at room temperature for 10 mins and 100 μl of CellTiter Glo reagent was added into each well. Plates were shaken for 10 mins. The chemiluminescent light unit was read in Envision from Perkin Elmer. All the tests were run at triplicates. The IC50 was calculated using Spotfire software.

[1] = target: c-MET receptor tyrosine kinase, GST-c-MET(969-1390) (Homo sapiens, UniProt P08581); test: EPK c-MET profiling assay (LanthaScreen TR-FRET kinase assay); format: biochemical; settings: 2 μM ATP, 0.3 nM enzyme, 60 minutes at room temperature; end point measurement, repeats can be about two times higher or lower; read-out: c-Met Biochem IC50
Experimental: The exemplified compounds of the present invention were assayed in an antibody based kinase phosphorylation assay as follows.
EPK c-MET Profiling Assay:
The EPK kinase assay for c-MET receptor tyrosine kinase was developed, using the purified recombinant GST-fusion protein, containing the cytoplasmic domain of the enzyme. GST-c-MET(969-1390) was purified by affinity chromatography.
The kinase assay is based on the LanthaScreen™ technology. LanthaScreen™ is the detection of Time-Resolved Fluorescence Resonance Energy Transfer (TR-FRET) using lanthanide chelates to measure interactions between various binding partners. In a TR-FRET kinase assay, a long-lifetime lanthanide donor species is conjugated to an antibody that specifically binds to a phosphorylated product of a kinase reaction that is labeled with a suitable acceptor fluorophore. This antibody-mediated interaction brings the lanthanide donor and the acceptor into proximity such that resonance energy transfer can take place, resulting in a detectable increase in the FRET signal.
The kinase reactions were performed in 384 well microtiter plates in a total reaction volume of 10.05 μL. The assay plates were prepared with 0.05 μL per well of test compound in the appropriate test concentration, as described under “preparation of compound dilutions”. The reactions were started by combining 5 μL of ATP solution with 5 μL of enzyme-substrate mix (consisting of kinase and substrate). The final concentrations in the kinase reactions were 25 mM Tris/HCl, 1 mM DTT, 0.025% Tween20, 10 μM sodium orthovanadate, 0.25% BSA, 0.5% DMSO, 10 mM MgCl2, 3 mM MnCl2, 2 μM ATP, 50 nM Fluorescein-PolyEAY, and 0.3 nM enzyme. The reactions were incubated for 60 minutes at room temperature and stopped by adding 5 μL of stop buffer (50 mM EDTA, 0.04% NP40, 20 mM Tris/HCl). Subsequently 5 μL of detection mix (50 mM Tris/HCl, 2 mM DTT, 0.05% Tween20, 20 μM sodium orthovanadate, 1% BSA, 1 nM Tb-PY20 antibody) were added to the stopped reactions. After 45 minutes incubation in dark at room temperature, the plates were measured in a Perkinelmer Envision fluorescence reader. The effect of compound on the enzymatic activity was in all assays obtained from the linear progress curves and normally determined from one reading (end point measurement).
These endpoint results should therefore only be seen as an indicator for the activity range, since repeated measurements can result in about two times higher or lower values.

human platelet PDE3 = target: T1, human platelet PDE3 (Homo sapiens, UniProt Q14432); test: hPDE3 assay ([3H]cAMP scintillation proximity assay); format: biochemical; settings: human platelet PDE3, [3H]cAMP SPA, 30 min at room temperature
T1 construct: Human platelet PDE3 (partially purified from human platelets); from tissue; host or cells: human platelets
T1 sequence (Q14432 whole entry): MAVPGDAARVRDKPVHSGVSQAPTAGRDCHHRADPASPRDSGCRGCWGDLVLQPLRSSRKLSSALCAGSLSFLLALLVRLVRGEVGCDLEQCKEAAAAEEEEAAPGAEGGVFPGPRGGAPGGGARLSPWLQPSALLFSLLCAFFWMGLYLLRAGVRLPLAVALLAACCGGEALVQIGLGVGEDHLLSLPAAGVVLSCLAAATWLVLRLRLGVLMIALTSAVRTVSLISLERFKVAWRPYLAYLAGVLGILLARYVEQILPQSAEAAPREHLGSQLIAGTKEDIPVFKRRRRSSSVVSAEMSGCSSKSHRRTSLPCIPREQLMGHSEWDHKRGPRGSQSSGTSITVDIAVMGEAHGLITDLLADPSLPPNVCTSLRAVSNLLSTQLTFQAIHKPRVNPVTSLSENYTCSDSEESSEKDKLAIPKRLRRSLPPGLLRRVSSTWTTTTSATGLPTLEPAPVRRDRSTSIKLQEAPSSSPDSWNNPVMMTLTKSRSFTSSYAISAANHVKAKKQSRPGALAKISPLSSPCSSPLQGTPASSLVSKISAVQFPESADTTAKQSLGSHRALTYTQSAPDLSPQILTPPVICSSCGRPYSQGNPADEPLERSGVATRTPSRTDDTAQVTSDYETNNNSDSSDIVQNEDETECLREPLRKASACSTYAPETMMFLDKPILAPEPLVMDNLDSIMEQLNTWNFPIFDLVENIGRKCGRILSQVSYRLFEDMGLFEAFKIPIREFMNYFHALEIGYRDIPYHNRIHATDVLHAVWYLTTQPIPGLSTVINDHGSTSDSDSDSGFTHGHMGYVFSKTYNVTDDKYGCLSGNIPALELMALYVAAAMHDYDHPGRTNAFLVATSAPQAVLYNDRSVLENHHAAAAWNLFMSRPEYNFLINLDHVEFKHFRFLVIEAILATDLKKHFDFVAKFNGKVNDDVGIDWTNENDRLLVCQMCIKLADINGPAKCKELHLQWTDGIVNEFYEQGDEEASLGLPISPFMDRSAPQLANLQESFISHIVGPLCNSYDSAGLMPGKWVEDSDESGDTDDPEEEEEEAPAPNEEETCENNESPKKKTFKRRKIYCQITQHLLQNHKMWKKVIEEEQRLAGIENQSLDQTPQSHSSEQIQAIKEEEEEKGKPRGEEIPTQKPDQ

c-MET receptor tyrosine kinase, GST-c-MET(969-1390), sequence (P08581 969-1390): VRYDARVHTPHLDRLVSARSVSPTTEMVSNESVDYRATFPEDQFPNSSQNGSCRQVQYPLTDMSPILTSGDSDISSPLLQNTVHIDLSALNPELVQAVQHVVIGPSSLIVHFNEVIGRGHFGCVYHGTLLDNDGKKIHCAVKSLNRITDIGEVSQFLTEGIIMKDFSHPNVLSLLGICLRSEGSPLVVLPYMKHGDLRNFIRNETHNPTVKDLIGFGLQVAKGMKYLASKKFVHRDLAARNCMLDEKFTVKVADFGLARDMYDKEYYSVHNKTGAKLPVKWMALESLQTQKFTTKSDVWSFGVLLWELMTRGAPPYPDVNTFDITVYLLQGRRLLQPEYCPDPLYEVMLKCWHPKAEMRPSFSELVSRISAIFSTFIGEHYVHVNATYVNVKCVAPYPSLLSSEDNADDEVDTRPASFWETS

Row | Structure (SMILES) | IC50 [1] | IC50 (human platelet PDE3) | IC50 (GTL16 cells)
1 | C/C(=N\O)c1ccc2nnc([C@@H](C)c3c(F)cc4ncc(C(C)(C)O)cc4c3F)n2n1 [24-(S)] | 5 nM | 8000 nM | 80 nM
2 | C/C(=N\O)c1ccc2nnc([C@H](C)c3c(F)cc4ncc(-c5cnn(C)c5)cc4c3F)n2n1 [Example 21-(R), (R,E)-1-(3-(1-(5,7-difluoro-3-(1-methyl-1H-pyrazol-4-yl)quinolin-6-yl)ethyl)-[1,2,4]triazolo[4,3-b]pyridazin-6-yl)ethanone oxime] | 47 nM | 7000 nM | 30 nM
3 | C/C(=N\O)c1ccc2nnc(Cc3c(F)cc4ncc(-c5cnn(C)c5)cc4c3F)n2n1 [Example 22, (E)-1-(3-((5,7-Difluoro-3-(1-methyl-1H-pyrazol-4-yl)quinolin-6-yl)methyl)-[1,2,4]triazolo[4,3-b]pyridazin-6-yl)ethanone oxime] | 1 nM | 21000 nM | 3 nM
4 | C/C(=N\O)c1ccc2nnc(Cc3ccc4ncc(N5CCOCC5)cc4c3)n2n1 [Example 13, (E)-1-(3-((3-Morpholin-4-yl-quinolin-6-yl)methyl)-[1,2,4]triazolo[4,3-b]pyridazin-6-yl)ethanone oxime] | 2 nM | 14000 nM | 10 nM
5 | C/C(=N\O)c1ccc2nnc([C@@H](C)c3c(F)cc4ncc(-c5cnn(C)c5)cc4c3F)n2n1 [Example 21-(S), (S,E)-1-(3-(1-(5,7-difluoro-3-(1-methyl-1H-pyrazol-4-yl)quinolin-6-yl)ethyl)-[1,2,4]triazolo[4,3-b]pyridazin-6-yl)ethanone oxime] | 3 nM | 4000 nM | 7 nM
6 | C/C(=N\OCCO)c1ccc2nnc(Cc3c(F)cc4ncc(C5CCCCC5)cc4c3F)n2n1 [Example 25, (E)-1-(3-((3-Cyclohexyl-5,7-difluoroquinolin-6-yl)methyl)-[1,2,4]triazolo[4,3-b]pyridazin-6-yl)ethanone O-2-hydroxyethyl oxime] | 16 nM | 3000 nM | 12 nM
7 | C/C(=N\OCC1CC1)c1ccc2nnc([C@H](C)c3ccc4ncc(-c5cnn(C)c5)cc4c3)n2n1 [Example 4-(R)] | 144 nM | 10000 nM | 99 nM

The next lines start with results.

Row | IC50 [1] | IC50 (human platelet PDE3) | Structure (SMILES) | IC50 (GTL16 cells)
8 | 3 nM | 25000 nM | C/C(=N\O)c1ccc2nnc(Cc3ccc4ncc(N5CCN(C)CC5)cc4c3)n2n1 [Example 14, (E)-1-(3-((3-(4-Methylpiperazin-1-yl)quinolin-6-yl)methyl)-[1,2,4]triazolo[4,3-b]pyridazin-6-yl)ethanone oxime] | 2 nM
9 | 5 nM | 2000 nM | CO/N=C(\C)c1ccc2nnc([C@@H](C)c3ccc4ncc(-c5cnn(C)c5)cc4c3)n2n1 [Example 3-(S)] | 1 nM
10 | 0.7 nM | > 30000 nM | C/C(=N\O)c1ccc2nnc(Sc3ccc4ncc(N5CCC(O)CC5)cc4c3)n2n1 [Example 29, (E)-1-(3-((3-(4-Hydroxypiperidin-1-yl)quinolin-6-yl)sulfanyl)-[1,2,4]triazolo[4,3-b]pyridazin-6-yl)-ethanone oxime] | 1 nM
11 | 5 nM | > 30000 nM | C/C(=N\O)c1ccc2nnc(Sc3ccc4ncc(N5CCN(C)CC5)cc4c3)n2n1 [Example 28, (E)-1-(3-((3-(4-Methylpiperazin-1-yl)quinolin-6-yl)sulfanyl)-[1,2,4]triazolo[4,3-b]pyridazin-6-yl)-ethanone oxime] | 2 nM
12 | 0.9 nM | 17000 nM | C/C(=N\O)c1ccc2nnc(Sc3ccc4ncc(NC5CCOCC5)cc4c3)n2n1 [Example 30, (E)-1-(3-((3-((Tetrahydro-2H-pyran-4-yl)amino)quinolin-6-yl)sulfanyl)-[1,2,4]triazolo[4,3-b]pyridazin-6-yl)-ethanone oxime] | 1 nM
13 | 1 nM | > 30000 nM | C/C(=N\O)c1ccc2nnc(Cc3c(F)cc4ncc(N5CCOCC5)cc4c3F)n2n1 [Example 11, (E)-1-[3-(5,7-Difluoro-3-morpholin-4-yl-quinolin-6-ylmethyl)-[1,2,4]triazolo[4,3-b]pyridazin-6-yl]-ethanone oxime] | 6 nM
14 | 7 nM | > 30000 nM | C/C(=N\O)c1ccc2nnc(Cc3ccc4ncc(CN5CCOCC5)cc4c3)n2n1 [Example 15, (E)-1-(3-((3-(Morpholin-4-yl-methyl)quinolin-6-yl)methyl)-[1,2,4]triazolo[4,3-b]pyridazin-6-yl)ethanone oxime] | 13 nM
